According to US20240041042A1, “1-(PYRIDYL)-5-AZINYLPYRAZOLE DERIVATIVES, AND THEIR USE FOR CONTROL OF UNDESIRED PLANT GROWTH” (Bayer Aktiengesellschaft, priority 2020, published 2024):
Where two headings read alike, the source gives them in different places.

What was measured:
Type in all cases: in vivo
[1] = system: Amaranthus retroflexus (AMARE); experiment: Pre-emergence herbicidal action against AMARE; conditions: 320 g/ha, visual scoring after about 3 weeks vs untreated controls
Outline: (§1)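 Read-out is visual percent damage relative to untreated pots, with 100% meaning dead plants and 0% meaning no difference, assessed roughly three weeks after treatment. Compounds were applied pre-emergence to the covering soil at up to 320 g/ha.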

Brassica napus (BRSNW) [2] = conditions: crop plant compatibility, in comparison to untreated controls
Outline: (§2)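 Scoring: visual, % of untreated control, about 3 weeks after a pre-emergence application to the soil surface. Application used WP or EC formulations diluted in water with 0.5% additive at 600 l/ha; dosage levels are marked by suffixes a, b and c.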

Glycine max (GLXMA) [3] = conditions: pre-emergence, crop plant compatibility, in comparison to untreated controls
Outline: as §2

Oryza sativa (ORYSA) [4] = conditions: pre-emergence, crop plant compatibility, in comparison to untreated controls
Outline: as §2

[5] = system: Triticum aestivum (TRZAS); conditions: pre-emergence, crop plant compatibility, in comparison to untreated controls
Outline: as §2

[6] = system: Amaranthus retroflexus (AMARE); experiment: Post-emergence herbicidal action against AMARE
Outline: (§3)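 Values are percent visual activity (0% like control, 100% plants dead) after about 3 weeks in the greenhouse. Treatment: post-emergence spray at one-leaf stage, 600 l/ha spray volume, 0.5% additive, doses 320 g/ha or lower.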

[7] = system: Polygonum convolvulus (POLCO); experiment: Post-emergence herbicidal action against POLCO; conditions: dosage 320 g/ha
Outline: as §3

Setaria viridis (SETVI) = experiment: Post-emergence herbicidal action against SETVI; conditions: dosage 320 g/ha
Outline: as §3

Viola tricolor (VIOTR) [8] = experiment: Post-emergence herbicidal action against VIOTR; conditions: 320 g/ha
Outline: as §3

Oryza sativa (ORYSA) [9] = conditions: crop plant compatibility
Outline: (§4)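 Percent effect on the crop was judged by eye against untreated controls, where 0% means like control and 100% means dead plants. Plants had been sprayed post-emergence at the one-leaf stage and then kept under optimum greenhouse conditions for about 3 weeks.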

[10] = system: Triticum aestivum (TRZAS); conditions: crop plant compatibility, effect vs untreated controls
Outline: as §4

Zea mays (ZEAMX) [11] = conditions: for Post-emergence action against ZEAMX in %: crop plant compatibility, effect vs untreated controls
Outline: as §4

Glycine max (GLXMA) [12] = experiment: Post-emergence crop plant compatibility, GLXMA; conditions: for Post-emergence action against GLXMA: 320 g/ha, effect vs untreated controls; for Post-emergence action against GLXMA in %: 80 g/ha, effect in comparison to untreated controls
Procedure: (§5) Seeds of monocotyledonous and dicotyledonous weeds and crop plants are placed in sandy loam in plastic or organic planting pots, covered with soil and cultivated in a greenhouse under controlled growth conditions. 2 to 3 weeks after sowing, the test plants are treated at the one-leaf stage. The compounds of the invention, formulated in the form of wettable powders (WP) or as emulsion concentrates (EC), are then sprayed onto the green parts of the plants as aqueous suspension or emulsion with addition of 0.5% additive at a water application rate of 600 l/ha (converted). After the test plants have been kept in the greenhouse under optimum growth conditions for about 3 weeks, the activity of the preparations is rated visually in comparison to untreated controls. For example, 100% activity=the plants have died, 0% activity=like control plants.
(§6) The observed effects on selected crop plants are reported here in comparison to the untreated controls (values in %). The appendices “a”, “b” and “c” give differentiation by dosage used with otherwise the same crop plants tested.

[13] = system: Verconica persica (VERPE); experiment: Pre-emergence herbicidal action against VERPE
Outline: as §1

Viola tricolor (VIOTR) [14] = experiment: Pre-emergence herbicidal action against VIOTR; conditions: 320 g/ha, Viola tricolor
Outline: as §1

Zea mays (ZEAMX) [15] = conditions: pre-emergence, crop plant compatibility, in comparison to untreated controls
Outline: as §2

[16] = system: Verconica persica (VERPE); experiment: Post-emergence herbicidal action against VERPE; conditions: 320 g/ha, VERPE
Outline: as §3

Avena fatua (AVEFA) = experiment: Pre-emergence herbicidal action against AVEFA; conditions: 320 g/ha, visual scoring after about 3 weeks vs untreated controls
Outline: as §1

[17] = system: Polygonum convolvulus (POLCO); experiment: Pre-emergence herbicidal action against POLCO; conditions: dosage 320 g/ha
Outline: as §1

[18] = system: Pharbitis purpurea (PHBPU); experiment: Post-emergence herbicidal action against PHBPU; conditions: dosage 320 g/ha
Outline: as §3

[19] = system: Alopecurus myosuroides (ALOMY); experiment: Post-emergence herbicidal action against ALOMY; conditions: 80 g/ha, visual rating about 3 weeks after treatment vs untreated controls (100% = plants have died, 0% = like control plants)
Outline: as §3

Brassica napus (BRSNW) [20] = experiment: Post-emergence crop plant compatibility, BRSNW; conditions: effect in comparison to untreated controls
Procedure: as §5, §6

[21] = 320 g/ha, visual rating about 3 weeks after treatment
[22] = 80 g/ha, effect in comparison to untreated controls
[23] = 320 g/ha, effect in comparison to untreated controls

| Pre-emergence action against BRSNW in % (Brassica napus (BRSNW) [2]; 80 g/ha) [%] | Pre-emergence action against GLXMA in % (Glycine max (GLXMA) [3]; 80 g/ha) [%] | Pre-emergence action against GLXMA in % (Glycine max (GLXMA) [3]; 320 g/ha) [%] | Pre-emergence action against ORYSA in % (Oryza sativa (ORYSA) [4]; 80 g/ha) [%] | Pre-emergence action against TRZAS in % ([5]; 80 g/ha) [%] | Pre-emergence action against TRZAS in % ([5]; 320 g/ha) [%] | Post-emergence action against ORYSA in % (Oryza sativa (ORYSA) [9]; [22]) [%] | Post-emergence action against ORYSA in % (Oryza sativa (ORYSA) [9]; [23]) [%] | Post-emergence action against TRZAS in % ([10]; 80 g/ha) [%] | Post-emergence action against TRZAS in % ([10]; 320 g/ha) [%] | Post-emergence action against ZEAMX in % (Zea mays (ZEAMX) [11]; 80 g/ha) [%] | Post-emergence action against ZEAMX in % (Zea mays (ZEAMX) [11]; 320 g/ha) [%] | Post-emergence action against GLXMA (Glycine max (GLXMA) [12]) [%] | Post-emergence action against GLXMA in % (Glycine max (GLXMA) [12]) [%] | Pre-emergence action against ZEAMX in % (Zea mays (ZEAMX) [15]; 80 g/ha) [%] | SMILES | Pre-emergence action against AMARE in % [1] [%] | Post-emergence action against AMARE in % [6, 21] [%] | Post-emergence action against POLCO in % [7] [%] | Post-emergence action against VIOTR in % (Viola tricolor (VIOTR) [8]) [%] | Pre-emergence action against VIOTR in % (Viola tricolor (VIOTR) [14]) [%] | also measured |
| --- | --- | --- | --- | --- | --- | --- | --- | --- | --- | --- | --- | --- | --- | --- | --- | --- | --- | --- | --- | --- | --- |
| 0 | 0 | 0 | 20 | 0 | 0 | 0 | 0 | 0 | 10 | 0 | 0 | 0 | 0 |  | CCOC(=O)C[S+]([O-])c1nn(-c2ccccn2)c(-c2cncc(F)c2)c1Cl (centres unmarked) [Example I-150] | 80 | 80 | 90 | 80 |  | Post-emergence action against AMARE in % ([6]; 80 g/ha, visual rating about 3 weeks after treatment vs untreated controls (100% = plants have died, 0% = like control plants)): 80%; Post-emergence action against SETVI in % (Setaria viridis (SETVI)): 80% |
| 10 | 0 |  | 0 | 0 | 20 | 0 | 0 | 0 | 10 | 10 | 10 |  | 0 | 20 | CCOC(=O)COc1nn(-c2ccc(Br)c(C)n2)c(-c2cncc(F)c2)c1Br [Example I-161] |  |  |  | 80 | 90 | Pre-emergence action against VERPE in % ([13]; dosage 320 g/ha): 80%; Pre-emergence action against BRSNW in % (Brassica napus (BRSNW) [2]; 320 g/ha): 10%; Pre-emergence action against ORYSA in % (Oryza sativa (ORYSA) [4]; 320 g/ha): 0%; Pre-emergence action against ZEAMX in % (Zea mays (ZEAMX) [15]; 320 g/ha): 20%; Post-emergence action against VERPE in % [16]: 80% |
| 0 | 0 | 0 |  | 0 | 20 | 0 | 0 | 0 | 20 | 0 | 20 | 10 | 0 | 0 | CCOC(=O)COc1nn(-c2ccccn2)c(-c2cncc(F)c2)c1Cl [Example I-147] | 90 | 90 | 90 | 90 | 90 | Pre-emergence action against AVEFA in % (Avena fatua (AVEFA)): 80%; Pre-emergence action against POLCO in % [17]: 90%; Post-emergence action against PHBPU in % [18]: 90% |
| 20 |  |  | 10 |  |  | 10 |  |  |  | 10 |  |  |  | 10 | COC(=O)C1CCCN1C(=O)COc1nn(-c2ccccn2)c(-c2ccc(F)nc2)c1Br (centres unmarked) [Example I-110] |  |  |  |  |  | Pre-emergence action against VERPE in % ([13]; dosage 80 g/ha): 100%; Post-emergence action against ALOMY in % [19]: 80%; Post-emergence action against ORYSA in % (Oryza sativa (ORYSA) [9]; 20 g/ha, effect vs untreated controls): 0%; Post-emergence action against TRZAS in % ([10]; 20 g/ha): 0%; Post-emergence action against ZEAMX in % (crop plant compatibility) (Zea mays (ZEAMX) [11]; 20 g/ha, ZEAMX, effect in comparison to untreated controls): 10%; Post-emergence action against BRSNW in % (Brassica napus (BRSNW) [20]; 20 g/ha): 10%; Post-emergence action against BRSNW in % (Brassica napus (BRSNW) [20]; 80 g/ha): 20% |
